Usually DC50 stands for the concentration giving 50% degradation.

SMILES strings stand for the structures.

Consider 14 molecules from US20260355196A1, “INHIBITORS AND DEGRADERS OF PIP4K PROTEIN” (Larkspur Biosciences, Inc., priority 2023, published 2026).

The target in the first test is T1, PIP4K2C (Homo sapiens, UniProt Q8TBX8).
T1 sequence (Q8TBX8 1-421): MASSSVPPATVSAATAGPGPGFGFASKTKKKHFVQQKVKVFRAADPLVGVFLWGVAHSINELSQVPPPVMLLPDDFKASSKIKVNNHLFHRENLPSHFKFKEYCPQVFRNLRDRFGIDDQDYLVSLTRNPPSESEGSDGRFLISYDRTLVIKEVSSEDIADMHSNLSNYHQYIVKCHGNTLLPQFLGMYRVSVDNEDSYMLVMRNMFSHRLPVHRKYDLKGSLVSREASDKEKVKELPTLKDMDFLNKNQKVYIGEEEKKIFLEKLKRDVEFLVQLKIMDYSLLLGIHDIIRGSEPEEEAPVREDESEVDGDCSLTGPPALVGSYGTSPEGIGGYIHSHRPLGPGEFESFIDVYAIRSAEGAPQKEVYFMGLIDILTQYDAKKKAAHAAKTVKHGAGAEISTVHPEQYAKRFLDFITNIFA
As to the kind of experiment: HiBiT PIP4K2C degradation assay in MOLT-4 cells (endogenous PIP4K2C C-terminally tagged with HiBiT). Format: cell-based. The arrangement: untagged in primary human PBMCs and monocyte-derived dendritic cells. Conditions: 6 hours of incubation time, rather than 24 hours; MOLT-4, top concentration 10 micromolar; read-out: HiBIT-degradation MOLT4 PIP4k2C DC50 (6 hours, marked *). A digest of the protocol: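 In a CRISPR-engineered MOLT-4 clone carrying HiBiT-tagged PIP4K2C, degradation was assessed after 24 or 6 hours of dosing (10 micromolar top, 3-fold steps). Luminescence from lytic HiBiT detection was fitted to obtain DC50.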
On the technique in general: HiBiT is a short tag that completes a luciferase, so light tracks the accessible tagged protein.
In the case of `O=C1CCC(Nc2ccc(N3CCC(N4CCC(C(=O)N[C@H]5CC[C@H](Nc6ncc(F)c(-c7cccc(N8CCOCC8)c7)n6)CC5)CC4)CC3)c(F)c2)C(=O)N1` (stereo partly drawn) [Compound 645, trans-1′-(4-((2,6-dioxopiperidin-3-yl)amino)-2-fluorophenyl)-N-(4-((5-fluoro-4-(3-morpholinophenyl)pyrimidin-2-yl)amino)cyclohexyl)-[1,4′-bipiperidine]-4-carboxamide], the 50% degradation concentration (DC50) is < 500 nM. For `Cn1nc(C2CCC(=O)NC2=O)c2ccc(C3CCN(CC4(O)CCN(C(=O)O[C@H]5CC[C@H](Nc6ncc(F)c(-c7cccc(-c8ccccc8)c7)n6)CC5)CC4)CC3)cc21` (stereo partly drawn) [Compound 646, trans-4-((4-([1,1′-biphenyl]-3-yl)-5-fluoropyrimidin-2-yl)amino)cyclohexyl 4-((4-(3-(2,6-dioxopiperidin-3-yl)-1-methyl-1H-indazol-6-yl)piperidin-1-yl)methyl)-4-hydroxypiperidine-1-carboxylate], the DC50 was < 500 nM. Take `Cn1nc(C2CCC(=O)NC2=O)c2ccc(C3CCN(CC4CCN(C(=O)O[C@H]5CC[C@H](Nc6ncc(F)c(-c7cccc(-c8ccccc8)c7)n6)CC5)CC4)CC3)cc21` (stereo partly drawn) [Compound 647, trans-4-((4-([1,1′-biphenyl]-3-yl)-5-fluoropyrimidin-2-yl)amino)cyclohexyl 4-((4-(3-(2,6-dioxopiperidin-3-yl)-1-methyl-1H-indazol-6-yl)piperidin-1-yl)methyl)piperidine-1-carboxylate]: the DC50 is < 500 nM. On to `O=C1CCC(Nc2ccc(C3CCN(C4CCN(C(=O)O[C@H]5CC[C@H](Nc6ncc(F)c(-c7cccc(-n8ccccc8=O)c7)n6)CC5)CC4(F)F)CC3)c(F)c2)C(=O)N1` (stereo partly drawn) [Compound 648, trans-4-((5-fluoro-4-(3-(2-oxopyridin-1 (2H)-yl)phenyl)pyrimidin-2-yl)amino)cyclohexyl 4-(4-((2,6-dioxopiperidin-3-yl)amino)-2-fluorophenyl)-3′,3′-difluoro-[1,4′-bipiperidine]-1′-carboxylate], for which the DC50 is > 5000 nM. Same read-out and setting: the value for `O=C1CCC(Nc2ccc(N3CCC(N4CCC(C(=O)N[C@H]5CC[C@H](Nc6ncc(F)c(-c7cccc(-c8ccccc8)c7)n6)CC5)CC4)CC3)c(F)c2)C(=O)N1` (stereo partly drawn) [Compound 649, trans-N-(4-((4-([1,1′-biphenyl]-3-yl)-5-fluoropyrimidin-2-yl)amino)cyclohexyl)-1′-(4-((2,6-dioxopiperidin-3-yl)amino)-2-fluorophenyl)-[1,4′-bipiperidine]-4-carboxamide] was < 500 nM; that for `O=C1CCC(Nc2ccc(N3CCN([C@H]4CC[C@H](CC(=O)N5CCC(Nc6ncc(F)c(-c7cccc(-n8ccccc8=O)c7)n6)CC5)CC4)CC3)c(F)c2)C(=O)N1` (stereo partly drawn) [Compound 650, trans-3-((3-fluoro-4-(4-(4-(2-(4-((5-fluoro-4-(3-(2-oxopyridin-1 (2H)-yl)phenyl)pyrimidin-2-yl)amino)piperidin-1-yl)-2-oxoethyl)cyclohexyl)piperazin-1-yl)phenyl)amino)piperidine-2,6-dione] was > 5000 nM; that for `O=C1CCC(Nc2ccc(C3CCN(C4CCN(C(=O)O[C@H]5CC[C@H](Nc6ncc(F)c(-c7cccc(-c8ccccc8)c7)n6)CC5)CC4)CC3)c(F)c2)C(=O)N1` (stereo partly drawn) [Compound 651, trans-4-((4-([1,1′-biphenyl]-3-yl)-5-fluoropyrimidin-2-yl)amino)cyclohexyl 4-(4-((2,6-dioxopiperidin-3-yl)amino)-2-fluorophenyl)-[1,4′-bipiperidine]-1′-carboxylate] was < 500 nM. The same measure, in the same setting: for `CN(C(=O)[C@H]1CC[C@H](N2CCC(c3ccc(NC4CCC(=O)NC4=O)cc3F)CC2)CC1)[C@H]1CC[C@H](Nc2ncc(F)c(-c3cccc(-n4ccccc4=O)c3)n2)CC1` (stereo partly drawn) [Compound 653, trans-4-(4-(4-((2,6-dioxopiperidin-3-yl)amino)-2-fluorophenyl)piperidin-1-yl)-N-((trans)-4-((5-fluoro-4-(3-(2-oxopyridin-1 (2H)-yl)phenyl)pyrimidin-2-yl)amino)cyclohexyl)-N-methylcyclohexane-1-carboxamide] the value was < 500 nM; for `O=C1CCC(Nc2ccc(C3CCN(C[C@H]4CC[C@H](C(=O)N5CCC(Nc6ncc(F)c(-c7cccc(-c8ccc[nH]c8=O)c7)n6)CC5)CC4)CC3)c(F)c2)C(=O)N1` (stereo partly drawn) [Compound 654, 3-((3-fluoro-4-(1-(((trans)-4-(4-((5-fluoro-4-(3-(2-oxo-1,2-dihydropyridin-3-yl)phenyl)pyrimidin-2-yl)amino)piperidine-1-carbonyl)cyclohexyl)methyl)piperidin-4-yl)phenyl)amino)piperidine-2,6-dione], < 500 nM; for `O=C1CCC(Nc2ccc(N3CCC(N4CCC(C(=O)N[C@H]5CC[C@H](Nc6ncc(F)c(-c7cccc(N8CCOCC8)c7)n6)CC5)CC4)C(F)C3)c(F)c2)C(=O)N1` (some centres unmarked) [Compound 655, 1′-(4-((2,6-dioxopiperidin-3-yl)amino)-2-fluorophenyl)-3′-fluoro-N-((1r,4r)-4-((5-fluoro-4-(3-morpholinophenyl)pyrimidin-2-yl)amino)cyclohexyl)-[1,4′-bipiperidine]-4-carboxamide], < 500 nM.

For the molecule `O=C1CCC(Nc2ccc(N3CCC(N4CCC(C(=O)N[C@H]5CC[C@H](Nc6ncc(F)c(-c7cccc(-c8ccccc8)c7)n6)CC5)CC4)C(F)C3)c(F)c2)C(=O)N1` (some centres unmarked) [Compound 656, N-((1r,4r)-4-((4-([1,1′-biphenyl]-3-yl)-5-fluoropyrimidin-2-yl)amino)cyclohexyl)-1′-(4-((2,6-dioxopiperidin-3-yl)amino)-2-fluorophenyl)-3′-fluoro-[1,4′-bipiperidine]-4-carboxamide], the DC50 is < 500 nM. Turning to `O=C1CCC(Nc2ccc(C3CCN([C@H]4CC[C@H](NC(=O)[C@H]5CC[C@H](Nc6ncc(F)c(-c7cccc(N8CCOCC8)c7)n6)CC5)CC4)CC3)c(F)c2)C(=O)N1` (stereo partly drawn) [Compound 657, trans-(1r,4R)—N-((1r,4R)-4-(4-(4-((2,6-dioxopiperidin-3-yl)amino)-2-fluorophenyl)piperidin-1-yl)cyclohexyl)-4-((5-fluoro-4-(3-morpholinophenyl)pyrimidin-2-yl)amino)cyclohexane-1-carboxamide], the DC50 is < 500 nM. Same read-out and setting: for `O=C1CCC(Nc2ccc(C3CCN([C@H]4CC[C@H](NC(=O)[C@H]5CC[C@H](Nc6ncc(F)c(-c7cccc(-c8ccccc8)c7)n6)CC5)CC4)CC3)c(F)c2)C(=O)N1` (stereo partly drawn) [Compound 658, trans-(1r,4R)-4-((4-([1,1′-biphenyl]-3-yl)-5-fluoropyrimidin-2-yl)amino)-N-((1r,4R)-4-(4-(4-((2,6-dioxopiperidin-3-yl)amino)-2-fluorophenyl)piperidin-1-yl)cyclohexyl)cyclohexane-1-carboxamide] the value was < 500 nM.

The test is the same for the next values; noted with them: read-out: HiBIT-degradation MOLT4 PIP4k2C DC50 (6 hours, marked *); 6 hours of incubation time, rather than 24 hours; MOLT-4, top concentration 10 micromolar.
`O=C1CCC(Nc2ccc(N3CCC(N4CC5(CN(C(=O)O[C@H]6CC[C@H](Nc7ncc(F)c(-c8cccc(-n9ccccc9=O)c8)n7)CC6)C5)C4)CC3)c(F)c2)C(=O)N1` (stereo partly drawn) [Compound 652, (trans)-4-((5-fluoro-4-(3-(2-oxopyridin-1 (2H)-yl)phenyl)pyrimidin-2-yl)amino)cyclohexyl 6-(1-(4-((2,6-dioxopiperidin-3-yl)amino)-2-fluorophenyl)piperidin-4-yl)-2,6-diazaspiro[3.3]heptane-2-carboxylate]: the DC50 was < 500 nM.
